ChEMBL document CHEMBL1201862, “PubChem BioAssay data set” (2004)
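Dose response: 5 concentrations. Exposure: 48 h. Format: 96-well plates. Endpoint: linear interpolation; highest concentration if not reached. Here, GI50 denotes the concentration required for 50% inhibition of growth.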 The source made the active and inactive calls. Rule as the data show it: active = GI50 up to about 1.1 µM and inactive = higher.

Columns and labels:
Test in all cases: inhibition of tumour cell growth, NCI panel, 48 h
[1] = system: A498
[2] = system: SNB-78
[3] = system: XF498
[4] = system: DU-145
[5] = system: MDA-MB-231
[6] = system: MDA-N
[7] = system: T47D

Measured: GI50

CCCCC#CS(=O)(=O)C(F)(F)F
inactive: [1] 44.9 µM | [2] > 100 µM | [3] 56.9 µM

O=C1/C(=C/c2ccc(Cl)cc2)N=C(c2ccccc2)N1/N=C/c1ccccc1O
inactive: [4] 21 µM | [5] 15.1 µM | [6] 69.5 µM | [7] 6.27 µM
